# Results from patent US8580749B2, “Peptide-coated cell localization to diseased or damaged tissues and methods related thereto” (Cell Targeting, Inc., priority 2009, dated 2013).
# No end group written: not given here. *: point of attachment. Palmitoyl = CCCCCCCCCCCCCCCC(=O)*
# Columns and labels:
# ischemic hindlimb = assay: Fluorescent peptide homing studies, mouse hindlimb ischemia model; format: in vivo; details: for homing of peptide in the mouse ischemic hindlimb: cryosections, FIG. 16; for tissue to which the peptide homed: fluorescent peptide studies
# Procedure: Four palmitated peptides were synthesized: SK(biotin)[…] […] Human mesenchymal stem cells (hMSCs) were transiently coated with the four palmitated peptides and fluorescently labeled with Vybrant dye. […] MSCs were grown in DMEM/FBS (10%) supplemented with FGF (5 ng/ml), then trypsinized, washed with DMEM and aliquoted at 1 million cells/vial and resuspended in Tyrodes. […] Cell solutions were then centrifuged (200 RCF, 5 min, r.t.), washed twice with cold Tyrodes, then incubated for 20 min with 20 μg/ml streptavidin-PE (S866 Invitrogen), washed with Tyrodes, fixed with formalin, and then assessed using flow cytometry and epifluorescent microscopy.
# For animal experiments, MSCs were first incubated with Vybrant green (CDFA SE; Invitrogen) washed with Tyrodes, then coated with 50 μg/ml PA-peptides for 10 min at 37° C. with shaking. Following coating, cells were washed with Tyrodes twice and resuspended to give 5×10^6 cells/ml. Ischemia was produced in the left hind-limb through ligation and severing of the femoral artery in mice. Three days post ischemia, mice were injected with […] through the subclavian vein and cells allowed to circulate for two hours before sacrifice. Distribution of injected MSCs was monitored by whole-body (“Xenogen”) fluoroscopy. Animals were sacrificed and tissues (heart, lung, liver, spleen, kidney, left calf muscle, left femur muscle, right calf muscle and right femur muscle) were harvested and fluorescence histology was done on tissue cryosections.
# heart = assay: Phage screen of 12 phage in mice with myocardial infarction; format: in vivo; details: for preferential localization of phage-displayed peptide in the heart: mice 1, 3 and 7 days after MI, phage circulated 10 minutes; for time point preference of heart localization after infarct: 1, 3 and 7 days post-MI
# Procedure: A limited phage screen of 12 phage was performed in a study against mice with myocardial infarction (MI) lasting 1, 3 and 7 days. This panel of phage was selected to include phage with a greater potential for injured tissue, a positive non-specific control and a negative control phage. All publications and references cited in FIG. 24 are incorporated by reference to the extent such incorporation is not contrary to the invention described therein. Nothing herein is to be construed as an admission that the invention is not entitled to antedate such disclosure by virtue of prior invention.
# Amplified phage were mixed in a 1:1 ratio and 200 μl injected at 1×10^9 pfu/ml into animals 1, 3 and 7 days after myocardial ischemia was produced. Phage were allowed to circulate for 10 minutes before the animal was perfused through the left ventricle with warmed DMEM/BSA (1%, ˜10 ml) with the right ventricle cut. Tissues (heart, lung, liver, spleen, kidney) were then harvested and stored on ice in 1 ml of DMEM/BSA (1%) before homogenization (Omni International TH homogenizer). Four washes were performed using PBS/BSA (1%) with centrifugation at 2800 RCF (5 min, 4° C.) and resuspension in PBS/BSA (1%). After the final wash, homogenates were weighed then lysed with 100 μl Triton-X-100 (1% in PBS) on ice for 15 minutes; 900 ul of BLT5403 (OD 600) was then added and incubated for 10 minutes (r.t.). This solution was then serially diluted in LB+CarbenicilHn and 240 ul aliquots taken into 1.2 ml BLT5403 and 600 μl plated on 10 cm agar plates with 4 ml top agar. Following overnight incubation, plaques were counted and the pfu/g tissue homogenate was calculated. Plaques were picked into 30 μl of PBS, 1 μl of this solution was transferred into 14 μl PCR mix (GoTaq Green Master Mix 7.5 μl, 1.5 μl 5 μM T7down (AACCCCTCAAGACCCGTTTA (SEQ ID NO: 13)), 1.5 μl 5 μM T7 Superup (AGCGGACCAGATTATCGCTA (SEQ ID NO: 24)), 3.5 μl of DNAse free water). This mix was then subjected to polymerase chain reaction (PCR) (1 cycle of 5 min 94° C.; 35 cycles of 94° C. 30 s, 50° C. 30 s, 72° C. 1 min; 1 cycle 72° C. 1 min; hold at 4° C.). The PCR samples then underwent cleanup and sequencing.
# heart tissue = assay: Homing of peptide-coated MSCs in mouse MI reperfusion model; format: in vivo, C57BL6 mice; details: for distribution of cells within heart tissue: coated MSCs, 1 hour circulation, day after 30 minute ischemia/reperfusion
# Procedure: C57BL6 mice were operated on with a sterile surgical technique. Mice were anaesthetized and intubated. A longitudinal incision was made in the thorax and the heart elevated. The left anterior descending artery was identified, and a ligature suture was placed around the artery and tightened down over a piece of polyethylene tubing placed above the artery, as shown in FIG. 1. After 30 minutes the ligation was released, the chest closed and the mouse was allowed to recover. The following day the mouse was again anaesthetized and intubated, the thoracotomy re-opened and cells administered through the left ventricle (1×10^6 cells). Cells were allowed to circulate for 1 hour before blood was collected into EDTA tubes and the mouse sacrificed via exsanguination. Blood was collected just prior to exsanguination to provide samples for assay of Troponin I levels.
# Sections were cryosectioned 8 microns thick, mounted in sequence onto slides and viewed for the fluorescent label of the cells.
# Histology sections of cardiac tissues were examined for VYBRANT® (CDFA SE; Invitrogen) green-labeled cells to determine the cells' propensity to target or home to distinct regions of the tissues, especially those associated with the infarcted region. Outcomes were evaluated via quantitative fluorescent microscopy of infarcted and non-infarcted tissues. Area in millimeters squared were calculated from representative cross-sections and numbers of cells were counted on a series of sections taken through the heart.
# Sections of heart tissue were also analyzed using fluorescent microscopy. Five slides containing six sections per slide were analyzed. On each section a count of the number of cells was made. The count was then normalized against the area of the centre section on that slide.
# An enzyme-linked immunosorbent assay (ELISA) (Life Diagnostics, Inc., Cat. No. 2010-1-HSP) of cardiac troponin I was made on the plasma collected from each mouse according to the manufacturer's method. Briefly, 60 μl of plasma sample was diluted with 180 μl plasma diluent. Standards and samples (100 μl) were added to coated wells containing 100 μl of cardiac troponin I horse radish peroxidase conjugate. These were mixed on an orbital shaker at room temperature for 1 hour. This solution was removed and the wells were washed thoroughly; 100 μl of tetramethylbenzidine reagent was then added to each well. This was incubated on the orbital shaker at room temperature for 20 minutes, then stop solution was added (100 μl) and the absorbance read at 450 nm (Tecan Genios Pro).
# [1] = system: human mesenchymal stem cells (MSCs); assay: MTT toxicity assay of PA-peptides; format: cell-based; details: 1 hour incubation
# Procedure: Human mesenchymal stem cells (MSCs) were seeded on 96-well plates (5.8×10^3 cells/well; DMEM/FBS 10%) and allowed to grow/adhere for 2 days. Media was removed and PA-peptides were added (0-0.1 mg/ml) to the cells. Toxicity was assessed after 10 minute incubation and 1 hour incubation. Acute effects were assessed immediately following the 10 minute exposure, and longer-term effects were measured the next day after the 10 minute exposure and the 1 hour exposure. Toxicity was assessed using the MTT method. Briefly, 20 μl of MTT (5 mg/ml in PBS, sterile filtered, Corning 0.22 μm Polyethersulfone) was added to each well and the plate was then incubated for 4 hours at 37° C. Media containing MTT was then carefully removed and 100 μl of dimethyl sulfoxide (DMSO) was added to each well. Plates were incubated for a further 30 minutes at 37° C. to solubilize the purple formazan crystals, and absorbance was then measured using a plate reader (570 nm; Tekan Genios Pro).
# ischemic hearts = assay: Uptake and localization of fluorescently labeled CRPPR in ischemic hearts; format: in vivo, mouse; details: 30 minutes, 6 hour and 24 hour ischemia
# Procedure: Fluorescently labeled CRPPR (SEQ ID NO: 1) was also studied for uptake and localization in ischemic hearts (30 minutes, 6 hour and 24 hour ischemia). This fluorescently labeled peptide was injected through the subclavian vein and allowed to circulate for two hours before sacrifice. Tissues (heart, lung, liver, spleen and kidney) were harvested, placed in TISSUE-TEK® molds and frozen in OCT cryomounting medium. The tissues were stored on dry ice until being placed at −80° C. and 8-10 μn sections were made.
# Sections of heart tissue through different regions of the heart were imaged using a fluorescent microscope and CCD camera. The images were then assessed for total fluorescence using ImageJ (Image Processing and Analysis in Java) (see FIG. 2).
# [2] = system: human mesenchymal stem cells (MSCs)
# Procedure: MSCs were grown in Dulbecco's Modified Eagle's Medium (DMEM) and fetal bovine serum (FBS) (10%) supplemented with fibroblast growth factor-2 (FGF-2) (5 ng/ml) for 1 week. They were then trypsinized, washed with DMEM, aliquoted at 1 million cells/vial and resuspended in Tyrodes' balanced salt solution. […] was later used throughout the coating procedure. […] Cell solutions were centrifuged (200 RCF, 5 min, r.t.), washed twice with cold Tyrodes solution, then incubated for 20 minutes with 20 μg/ml streptavidin-PE (S866 Invitrogen), washed with Tyrodes solution, fixed with formalin, and then assessed using flow cytometry and epifluorescent microscopy.
Substance,preferential localization of phage-displayed peptide in the heart (heart),tissue to which the peptide homed (ischemic hindlimb),distribution of cells within heart tissue (heart tissue),further results
"CRKDKC (cysteine pairing not given here; also: fluorescent label, position not given here)",some preferential localization,,,homing of peptide in the mouse ischemic hindlimb (ischemic hindlimb): homing
PA-KSTRKS (Palmitoyl-KSTRKS) [palmitated peptide (cell paint)],,homed to ischemic skeletal muscle tissue,distributed cells with some localization in vessels,concentrations causing a decrease in mitochondrial activity [1]: ≥ 50 µg/mL
PA-CRPPR (Palmitoyl-CRPPR) [palmitated peptide (cell paint)],,homed to cardiac tissue,some localization with vasculature,
CRPPR (not fully specified),some preferential localization in the heart,,,ischemia time at which localization was most pronounced (ischemic hearts): most pronounced after 24 hour ischemia; localization of fluorescent peptide in heart tissue (ischemic hearts; two hours circulation): localize in heart tissue; time point preference of heart localization after infarct (heart): some preference for the earlier time point after infarct
"CGLIIQKNEC (Targeting Sequence 3) [Clot1, homing peptide]",,,,homing of peptide in the mouse ischemic hindlimb (ischemic hindlimb): homing
PA-SK(Biotin)NSCARSKNKDC [PA-BioCAR],,homed to ischemic skeletal muscle tissue,distributed throughout the cardiac muscle,"cell labeling by the peptide ([2]; FIGS. 4 and 5): labeled the cells efficiently; cell-associated fluorescence ([2]; PA-BioCAR 0 to 2 mg/ml, 10 minutes, 37° C., streptavidin-PE): increasing cell-associated fluorescence with increasing PA-BioCAR concentration; correlation between heart damage (cardiac troponin I) and cell number (heart tissue; FIG. 14): more cells localizing in the heart after relatively larger damage"
PA-CRKDKC (Palmitoyl-CRKDKC; cysteine pairing not given here) [palmitated peptide (cell paint)],,homed to ischemic muscle tissue,papillary fibers have a higher concentration of cells than the cardiac muscle,
CARSKNKDC (Targeting Sequence 5),some preferential localization in the heart,,,
CREKA (Targeting Sequence 8),some preferential localization in the heart,,,time point preference of heart localization after infarct (heart): three day time point
